The values below come from article PMC5225203, “Multiparameter toxicity assessment of novel DOPO-derived organophosphorus flame retardants” (Archives of Toxicology, 2016).

For series [1], the system named is human dorsal root ganglia-like cells (hESC-H9 derived peripheral neurons). In words: Peripheral neurotoxicity test (PeriTox-test). It is filed as cell-based. As to conditions: 48 h. The procedure: The human pluripotent stem cell (hPSC) line H9 (WA09 line) was obtained from WiCell (Madison, WI, USA). Import of cells and experiments was authorized under license #170-79-1-4-27 (Robert Koch Institute, Berlin, Germany). Cells were cultured according to standard protocols (Thomson et al. [1998]) and differentiated into dorsal root ganglia-like cells as described earlier (Chambers et al. [2012]), with slight modifications. Briefly, neural differentiation was promoted by adding neural differentiation medium and the combination of 6 small molecule pathway inhibitors [noggin (35 ng/mL; R&D Systems, Minneapolis, MN, USA), dorsomorphin (600 nM; Tocris Bioscience, Bristol, UK), […] (10 μM; Tocris Bioscience, Bristol, UK), CHIR99021 (1.5 µM; Axon Medchem, Vienna, VA, USA), SU5402 (1.5 µM; Tocris Bioscience, Bristol, UK), and DAPT (5 µM; Merck, Darmstadt, Germany)]. The cells were cryopreserved on day 8′ of differentiation (DoD 8′). For each experiment, cells were thawed in neural differentiation medium supplemented with CHIR99021 (1.5 µM), SU5402 (1.5 µM), and DAPT (5 µM). For the peripheral neurotoxicity test (PeriTox-test), test chemicals were serially diluted in differentiation medium containing BDNF, GDNF, and NGF (25 ng/mL; R&D Systems, Minneapolis, USA) and added to the cells on day 3 after thawing. After 48 h, neurite area and viability were assessed as described earlier (Krug et al. [2013]). Briefly, cells were loaded with 1 µM calcein-AM and 1 µg/mL H-33342 for 1 h at 37 °C. For image acquisition, an Array-Scan VTI HCS (high content screening) microscope (Cellomics, Waltham, MA USA) was used. In an automated procedure, all H-33342^+/calcein^+ cells were analyzed as viable cells. In channel 1, H-33342^+ nuclei were detected according to their size, area, shape, and intensity at excitation/emission wavelengths of 365 ± 50/535 ± 45. The nuclei borders were expanded radially by 3.2 µm to define a virtual cell soma area (VCSA). In channel 2 (at excitation/emission wavelengths of 474 ± 40/535 ± 45), all calcein^+ pixels were identified as viable cell structures (VCS). An algorithm was applied that used the VCSA as a filter in the calcein channel and subtracted it from the VCS. The remaining pixels (VCS-VCSA) in the calcein channel were defined as neurite area and were represented relative to the untreated control.

Series [2] can be described thus: Penetration into porcine skin by confocal Raman spectroscopy. It is filed as in vitro ADME. The settings on record: 1 h; for maximal penetration depth: porcine skin surface, 400 µM; for penetration/accumulation into porcine ear skin: topical 400 µM, confocal Raman. The procedure:
The vertical distribution of topically applied DOPO derivatives and reference compounds was investigated on segments of porcine ears from freshly slaughtered animals. The skin was separated from the cartilage, depilated, and placed into Franz diffusion cells (1 cm^2). The acceptor solution was PBS buffer containing 2 % IGEPAL® CA-630 (Sigma-Aldrich). The test compounds were dispersed at a concentration of 400 µM (2 % in the case of caffeine) in PBS buffer containing 2 % IGEPAL® CA-630, after which 300 µL of this mixture (or a blank solution) was topically applied onto the porcine skin and allowed to penetrate for 60 min. Next, the skin was removed from the Franz cells, gently washed with PBS, and placed onto the optical window of an inverse confocal Raman microscope (Model 3510 SCA, River Diagnostics) equipped with a 60 × oil-immersion objective. The 785-nm excitation laser was used to acquire spectra in the fingerprint region (400–1800 cm^−1, 5 s integration time) starting from the surface of the skin and extending to a depth of 60 µm (2 µm step size). The acquisition was repeated for at least five positions. The averaged concentration profiles of the flame retardants and reference compounds were extracted by fitting (unrestricted classical least squares, third-order polynomial baseline) the Raman spectra with the reference spectra of keratin (as representative of all proteins), water, ceramide 3, cholesterol (as representatives of all lipids), natural moisturizing factor (NMF; fixed composition), lactate, urea, and solid test compounds using Skin Tools 2.0 software (River Diagnostics). The concentrations of the test substances are given as the molar fraction relative to keratin rather than correcting for the Raman signal attenuation using mathematical models (Franzen et al. [2013]). The response factors of the test compounds were determined against BSA solutions assuming similar Raman cross sections for keratin and BSA as described in the literature (Caspers et al. [2001]; Fleischli et al. [2013], [2015]). Because EDA-DOPO, ETA-DOPO, and EG-DOPO were only partially soluble in chloroform, their spectra were calibrated against DOPO with the assumption of the same Raman cross section for the biphenyl group. Because of the nature of the unrestricted fit, negative fitting coefficients can be obtained and the values must be compared to those of the blank sample. The fitting coefficients of the blank, untreated skin were also used to estimate the level of detection. The depth resolution of the confocal microscope was determined to be 8 µm at FWHM, leaving an uncertainty of approximately 4 µm in differentiating between truly permeated compounds and compounds sitting at the surface of the skin.

For series [3], the system named is rat neuroblastoma B35 cells. As to conditions: B35, 24 h, maximal concentration 100 µM; ref Hendriks et al. [2014]; cited from earlier work.
A further series has as its system A549 cells. On the set-up: method as in Kim et al. [2014]. The settings on record: same concentration range as used in the present study; ref Kim et al. [2014]; cited from earlier work.
The next series concerns human neural crest cells. The arrangement: method as in Zimmer et al. [2014]. As to conditions: concentrations as high as 100 µM; ref Zimmer et al. [2014]; cited from earlier work.

Each structure is given as a SMILES string. Bounds are passed on as bounds.

With `O=P1(OCCOP2(=O)Oc3ccccc3-c3ccccc32)Oc2ccccc2-c2ccccc21` (centres unmarked) [EG-DOPO, 6,6′-(ethane-1,2-diylbis(oxy))bis(6H-dibenzo[c,e][1,2]oxaphosphinine-6-oxide)], in series [1], the cell viability entry is given as “significantly affected” and the neurite integrity result is listed as “significantly affected”.
Take `O=P1(NCCNP2(=O)Oc3ccccc3-c3ccccc32)Oc2ccccc2-c2ccccc21` (centres unmarked) [EDA-DOPO, 6,6′-(ethane-1,2-diylbis(azanediyl))bis(6H-dibenzo[c,e][1,2]oxaphosphinine-6-oxide)]: in series [1], the “concentration moderately affecting neurite mass and reducing cell viability” value was greater than 50 µM.
For the compound `O=P1(NCCOP2(=O)Oc3ccccc3-c3ccccc32)Oc2ccccc2-c2ccccc21` (centres unmarked) [ETA-DOPO, 6-(2-((6-oxido-6H-dibenzo[c,e][1,2]oxaphosphinin-6-yl)amino)ethoxy)-6H-dibenzo[c,e][1,2]oxaphosphinine 6-oxide], the “concentration moderately affecting neurite mass and reducing cell viability” value in series [1] was greater than 50 µM. Besides, in series [2], the maximal penetration depth entry is listed as “less than 8 µm” and the “penetration/accumulation into porcine ear skin” value is recorded as “significant accumulation”.
Consider `O=[PH]1Oc2ccccc2-c2ccccc21` (centres unmarked) [DOPO, 9,10-dihydro-9-oxa-10-phosphaphenanthrene-10-oxide], for which, in series [1], the “concentration moderately affecting neurite mass and reducing cell viability” value was greater than 50 µM. Besides, in series [3], the “alterations in cell viability, generation of reactive oxygen species, or intracellular Ca2+ levels” value is given as “no signs of alterations”.
Turning to `Brc1ccc(Oc2cc(Br)c(Br)cc2Br)c(Br)c1` [PBDE-99, reference compound], in series [1], the cell viability entry was “significantly affected” and the neurite integrity entry was “significantly affected”. Moreover, in series [2], the maximal penetration depth result is on record as “less than 8 µm” and the “penetration/accumulation into porcine ear skin” value is reported as “moderate accumulation”. In addition, the “cell damage in A549 cells” value in the series on A549 cells is listed as “did not produce cell damage”. The “NCC migration and cell death” value with human neural crest cells is on record as “inhibited migration in the absence of cell death”.
